# From patent US12391641B2, “Prostaglandin EP4 receptor antagonist compounds” (NXERA PHARMA UK LIMITED, priority 2019, dated 2025)
# Target: T1, Human prostaglandin E2 receptor 4 (EP4) (Homo sapiens, UniProt P35408)
# T1 construct: expressed in transfected cells; host or cells: HEK293 cells transduced with EP4 BacMam virus
# Assay: cAMP Gs Functional Assay (HTRF cAMP dynamic-2), antagonism of PGE2
# Assay type: cell-based
# Settings: HEK293 cells transfected with EP4 BacMam virus; PGE2 challenge at EC80 (7 nM); pIC50 converted to functional pKb with a modified Cheng Prussoff equation; read-out: Human EP4 fpKb (converted)
# Description: Cloning, Baculovirus generation, large scale infection of HEK293 cells and membrane preparation: Human prostaglandin E2 receptor 4 (EP4) was cloned into pBacMam expression vector (GeneScript, UK). Transposition of EP4 DNA was performed using Invitrogen's Bac-to-Bac Baculovirus Expression Systems. P0 baculovirus was generated by transfecting SF9 Cells with bacmid DNA using Cellfectin II transfection reagent (ThermoFisher Scientific, UK, catalog number 10362-100). Following P0 generation P1 virus was then generated ready for large scale infection and membrane preparation. HEK293 cells were grown in DMEM+Glutamax, supplemented with 10% heat inactivated fetal bovine serum (FBS). Cells were infected at a seeding density of 3.5 million cells/mL in 500 cm^3 flasks at 5% v/v EP4 Bacman. Expression was carried out over 36 hr period at 37° C. with 5% CO2. The cells were removed using PBS and a cell scrapper. The cell culture was centrifuged at 2500 RPM for 10 mins at 4° C. The supernatant was then poured off and the pellet stored at −80° C. The pellet was defrosted and re-suspended in 15 mL of homogenising buffer (20 mM HEPES, 10 mM EDTA, pH 7.4). Then homogenised in mechanical homogeniser (VMR) for 10 seconds. The membrane was centrifuged in centrifuge tubes at 40,000 g for 15 mins at 4° C. The supernatant was poured away and re-suspended in 15 mL of homogenising buffer. Homogenised for 20 seconds. The membrane was centrifuged at 40,000 g for 45 mins at 4° C. The membrane was re-suspended in 3 mL of storage buffer (20 mM HEPES, 0.1 mM EDTA, pH 7.4) mixing well. The resulting membranes were then stored at −80° C.
# cAMP Gs Functional Assay: cAMP production following EP4 receptor activation was determined using the Homogeneous Time-Resolved Fluorescence (HTRF) cAMP dynamic-2 assay (Cisbio, France). HEK293 cells were transfected using a 0.5% EP4 Bacman virus for 36 hours, before dissociating the cells, and freezing at […].
# On the day of testing, increasing concentration of test compounds, alongside positive controls (1 uM ONO-AE3-208) and negative control (DMSO (Sigma-Aldrich, UK) were added to a ProxiPlate-384 Plus, White 384-shallow well Mircoplate, (PerkinElmer, USA) using the ECHO dispense.
# Cells were defrosted in a water bath and resuspended in DMEM supplemented with 10% FBS before centrifuging at 1200 RPM for 5 mins to form a pellet. The pellet was resuspended in assay buffer (DMEM+0.5 mM IBMX (Tocris, Abingdon, UK, Catalog Number 2845)) to a 1×10^6 cells/mL. Cell suspension, for a final assay concentration of 5000 cell/well was added using the multidrop to the pre-dispensed assay plate. The plate was then incubated at 37° C. for 30 mins, with 5% CO2. After incubation, EC80 concentration (7 nM) of PGE2 (EP4 agonist) was added to the plate. In parallel, a PGE2 dose-response curve was dispense to a separate plate. Assay buffer was then dispensed on top. The cAMP production was determined as manufacturer's instructions, before plates were read on a PheraStar fluorescence plate reader (BMG LabTech, Germany).
# The pIC50 was converted to a functional pKb value using a modified Cheng Prussoff equation where Kd=agonist EC50 and Lhot=agonist challenge concentration;
# T1 sequence (P35408 whole entry): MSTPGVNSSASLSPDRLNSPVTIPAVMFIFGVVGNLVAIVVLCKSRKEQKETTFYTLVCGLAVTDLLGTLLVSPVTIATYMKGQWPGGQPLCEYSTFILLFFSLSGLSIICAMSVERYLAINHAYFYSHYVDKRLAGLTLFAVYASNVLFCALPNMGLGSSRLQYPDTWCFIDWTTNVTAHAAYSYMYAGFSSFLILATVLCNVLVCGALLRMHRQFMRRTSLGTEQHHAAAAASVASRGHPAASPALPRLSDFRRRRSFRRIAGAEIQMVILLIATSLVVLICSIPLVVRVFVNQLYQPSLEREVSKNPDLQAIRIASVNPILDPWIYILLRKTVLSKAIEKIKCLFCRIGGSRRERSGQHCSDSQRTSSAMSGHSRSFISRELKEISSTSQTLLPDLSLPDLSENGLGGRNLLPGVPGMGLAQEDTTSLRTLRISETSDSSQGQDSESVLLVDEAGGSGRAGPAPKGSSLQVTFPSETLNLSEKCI
row,Compound,Ki [nM]
1,"CC(C)[C@@H](OCc1ccc(S(F)(F)(F)(F)F)cc1)C(=O)N[C@@H](C)c1ccc(C(=O)O)cc1 [Example 26, 4-((S)-1-((R)-3-methyl-2-((4-(pentafluoro-λ^6-sulfaneyl)benzyl)oxy)butanamido)ethyl)benzoic acid]",27.5
2,"CC(C)[C@@H](OCc1ccc(F)c(OC(F)F)c1)C(=O)N[C@@H](C)c1ccc(C(=O)O)cc1 [Example 32, 4-((S)-1-((R)-2-((3-(difluoromethoxy)-4-fluorobenzyl)oxy)-3-methylbutanamido)ethyl)benzoic acid]",0.224
3,"CC(C)[C@@H](OCc1ccccc1)C(=O)N[C@@H](C)c1ccc(C(=O)O)cc1 [Example 19, 4-((S)-1-((R)-2-(benzyloxy)-3-methylbutanamido)ethyl)benzoic acid]",12.9
4,"O=C(O)c1ccc(C2(NC(=O)C(OCc3cccc(OC(F)F)c3)C3CCC3)CC2)cc1 (centres unmarked) [Example 99, 4-(1-(2-cyclobutyl-2-((3-(difluoromethoxy)benzyl)oxy)acetamido)cyclopropyl)benzoic acid]",3.31
5,"CC(C)[C@@H](OCc1cccc(C(F)F)c1)C(=O)N[C@@H](C)c1ccc(C(=O)O)cc1 [Example 14, 4-((S)-1-((R)-2-((3-(difluoromethyl)benzyl)oxy)-3-methylbutanamido)ethyl)benzoic acid]",1.82
6,"O=C(O)c1ccc(C2(NC(=O)[C@@H](OCc3cccc(OC(F)F)c3)C3CCC3)CC2)cc1 [Example 100, (S)-4-(1-(2-cyclobutyl-2-((3-(difluoromethoxy)benzyl)oxy)acetamido)cyclopropyl)benzoic acid]",15.5
7,"CC(O[C@@H](C(=O)N[C@@H](C)c1ccc(C(=O)O)cc1)C(C)C)c1ccc(C(F)(F)F)cc1 (mixture of isomers) [Example 51, 4-((1S)-1-((2R)-3-methyl-2-(1-(4-(trifluoromethyl)phenyl)ethoxy)butanamido)ethyl)benzoic acid]",417
8,"O=C(O)c1ccc(C2(NC(=O)[C@H](OCc3cccc(OC(F)F)c3)C3CCC3)CC2)cc1 [Example 101, (R)-4-(1-(2-cyclobutyl-2-((3-(difluoromethoxy)benzyl)oxy)acetamido)cyclopropyl)benzoic acid]",0.851
9,"CC(C)C(OCc1cccc(F)c1)C(=O)N[C@@H](C)c1ccc(C(=O)O)cc1 (single isomer, unassigned) [Example 18]",457
10,"CC(C)[C@@H](OCc1ccc(OC(F)F)cc1)C(=O)N[C@@H](C)c1ccc(C(=O)O)cc1 [Example 23, 4-((S)-1-((R)-2-((4-(difluoromethoxy)benzyl)oxy)-3-methylbutanamido)ethyl)benzoic acid]",14.5
11,"CC(C)[C@H](OCc1cccc(S(C)(=O)=O)c1)C(=O)N[C@@H](C)c1ccc(C(=O)O)cc1 [Example 7, 4-((S)-1-((S)-3-methyl-2-((3-(methylsulfonyl)benzyl)oxy)butanamido)ethyl)benzoic acid]",> 195
12,"COCc1cccc(CO[C@@H](C(=O)N[C@@H](C)c2ccc(C(=O)O)cc2)C(C)C)c1 [Example 40, 4-((S)-1-((R)-2-((3-(methoxymethyl)benzyl)oxy)-3-methylbutanamido)ethyl)benzoic acid]",1.66
13,"CC(C)[C@@H](OCc1cccc(C2CC2)c1)C(=O)N[C@@H](C)c1ccc(C(=O)O)cc1 [Example 39, 4-((S)-1-((R)-2-((3-cyclopropylbenzyl)oxy)-3-methylbutanamido)ethyl)benzoic acid]",0.229
14,"CC(C)[C@@H](OCc1ccc(S(C)(=O)=O)cc1)C(=O)N[C@@H](C)c1ccc(C(=O)O)cc1 [Example 10, 4-((S)-1-((R)-3-methyl-2-((4-(methylsulfonyl)benzyl)oxy)butanamido)ethyl)benzoic acid]",20.4
15,"CC(C)C(OCc1cccc(F)c1)C(=O)N[C@@H](C)c1ccc(C(=O)O)cc1 (single isomer, unassigned) [Example 17]",3.02
16,"CC(C)[C@@H](OCc1cccc(S(C)(=O)=O)c1)C(=O)N[C@@H](C)c1ccc(C(=O)O)cc1 [Example 8, 4-((S)-1-((R)-3-methyl-2-((3-(methylsulfonyl)benzyl)oxy)butanamido)ethyl)benzoic acid]",8.71

# Second part, the compound after the results:
row,Ki [nM],Compound
1,13.8,"CC(C)[C@@H](OCc1ccc(C(F)(F)F)cn1)C(=O)N[C@@H](C)c1ccc(C(=O)O)cc1 [Example 25, 4-((S)-1-((R)-3-methyl-2-((5-(trifluoromethyl)pyridin-2-yl)methoxy)butanamido)ethyl)benzoic acid]"
2,25.7,"Cc1cc([C@H](C)NC(=O)[C@H](OCc2ccc(C(F)(F)F)cc2)C(C)C)ccc1C(=O)O [Example 36, 2-methyl-4-((S)-1-((R)-3-methyl-2-((4-(trifluoromethyl)benzyl)oxy)butanamido)ethyl)benzoic acid]"
3,3.16,"CC(C)[C@@H](OCc1ccc(Cl)cc1)C(=O)N[C@@H](C)c1ccc(C(=O)O)cc1 [Example 11, 4-((S)-1-((R)-2-((4-chlorobenzyl)oxy)-3-methylbutanamido)ethyl)benzoic acid]"
4,0.372,"CC(C)[C@@H](OCc1ccc(F)c(F)c1)C(=O)NC1(c2ccc(-c3nnn[nH]3)cc2)CC1 [Example 71, (R)—N-(1-(4-(1H-tetrazol-5-yl)phenyl)cyclopropyl)-2-((3,4-difluorobenzyl)oxy)-3-methylbutanamide]"
5,25.7,"CC(C)[C@@H](OCc1ccc(C(F)(F)F)cc1)C(=O)NC1(c2ccc(C(=O)NS(C)(=O)=O)cc2)CC1 [Example 63, (R)-4-(1-(3-methyl-2-((4-(trifluoromethyl)benzyl)oxy)butanamido)cyclopropyl)-N-(methylsulfonyl)benzamide]"
6,0.575,"CC(C)[C@@H](OCc1ccnc(OC(F)F)c1)C(=O)NC1(c2ccc(C(=O)O)cc2)CC1 [Example 67, (R)-4-(1-(2-((2-(difluoromethoxy)pyridin-4-yl)methoxy)-3-methylbutanamido)cyclopropyl)benzoic acid]"
7,> 12900,"CC(C)[C@@H](OCc1ccc(O)cc1)C(=O)N[C@@H](C)c1ccc(C(=O)O)cc1 [Example 41, 4-((S)-1-((R)-2-((4-hydroxybenzyl)oxy)-3-methylbutanamido)ethyl)benzoic acid]"
8,6.76,"CC(C)[C@@H](OCc1ccc(F)c(C2CC2)c1)C(=O)NC1(c2ccc(C(=O)O)cc2)CC1 [Example 89, (R)-4-(1-(2-((3-cyclopropyl-4-fluorobenzyl)oxy)-3-methylbutanamido)cyclopropyl)benzoic acid]"
9,0.955,"CC(C)[C@@H](OCc1ccc(C(F)(F)F)cc1)C(=O)NC1(c2ccc(-c3nnn[nH]3)cc2)CC1 [Example 69, (R)—N-(1-(4-(1H-tetrazol-5-yl)phenyl)cyclopropyl)-3-methyl-2-((4-(trifluoromethyl)benzyl)oxy)butanamide]"
10,0.447,"CC(C)C(OCc1cccc(C2COC2)c1)C(=O)NC1(c2ccc(C(=O)O)cc2)CC1 (single isomer, unassigned) [Example 86, 4-(1-(3-methyl-2-((3-(oxetan-3-yl)benzyl)oxy)butanamido)cyclopropyl)benzoic acid]"
11,64.6,"CC(C)[C@@H](OCc1ccc(C(F)(F)F)cc1)C(=O)N[C@@H](C)c1ccc(C(=O)NS(C)(=O)=O)cc1 [Example 53, 4-((S)-1-((R)-3-methyl-2-((4-(trifluoromethyl)benzyl)oxy)butanamido)ethyl)-N-(methylsulfonyl)benzamide]"
12,> 12900,"CC(C)[C@@H](OCc1cccc(OC(F)(F)F)c1)C(=O)NC1(c2ccc(C(=O)O)cc2)CC1 [Example 58, (R)-4-(1-(3-methyl-2-((3-(trifluoromethoxy)benzyl)oxy)butanamido)cyclopropyl)benzoic acid]"
13,0.562,"CC(C)[C@@H](OCc1cc(OC(F)F)ccn1)C(=O)NC1(c2ccc(C(=O)O)cc2)CC1 [Example 68, (R)-4-(1-(2-((4-(difluoromethoxy)pyridin-2-yl)methoxy)-3-methylbutanamido)cyclopropyl)benzoic acid]"
